Data taken from US7858329B2, “Antibody tools for the diagnostic use in the medical therapy with inhibitors of histone deacetylases” (TopoTarget Germany AG, priority 2002, dated 2010).

What was measured:
[1] = tested on: tumor cells transduced with HDAC/MTA constructs (HDAC-1, HDAC-2, MTA1); test: Sensitivity to HDAC inhibitor of transduced primary tumor-derived cell culture; type: cell-based; details: histone hypoacetylation
Experimental: An aliquot of the cells was collected, and Western blot analysis (using antibodies directed against acetylated histone H4) was performed on protein extracts prepared from these cells, to verify that overexpression of either HDAC, or of MTA1, led to a decrease in histone acetylation levels of the tumor cells.

[2] = tested on: histone acetylation in U-937 cells; test: Flow cytometry of histone acetylation (T52 staining) in U937 cells; type: cell-based, human; details: 10 ng/ml for 4 hrs, untreated cells 90
Experimental: Human U-937 cells were grown in RPMI-1640 medium supplemented with 10% Fetal Bovine Serum in standard culture conditions.
Exponentially growing U-937 cells were treated for 4 hrs with 10 ng/ml Trichostatin A (TSA, Sigma Aldrich). After the treatment cells were washed with cold phosphate buffer saline (PBS), counted and fixed in 1% formaldehyde in PBS for 15 minutes. Fixed cells were then washed, resuspended in PBS, and stocked at 4° C.
Histone acetylation analysis was performed according to the following procedure. Cells were fixed for 15 minutes in 1% formaldehyde in PBS. 1×10^6 cells/sample were washed with PBS+1% BSA and permeabilised with 200 μl of 0.1% Triton X100 in PBS for 10 min at room temperature (to allow for the antibody to reach acetylated nuclear proteins, such as histones). After washing with PBS+1% BSA pellets were incubated with 500 μl of 10% normal goat serum (NGS) in PBS for 20 min at 4° C. Histone acetylation levels were detected by incubation with T52 mouse monoclonal antibody (1 μg/ml in PBS+1% BSA). […]
Flow cytometry analysis was performed using a FACScan flow cytometer (Becton Dickinson), acquiring at least 10,000 events/sample. The instrument was equipped with a bandpass 530/30 nm optical filter for FITC fluorescence detection (FL1 channel) and a 650 nm longpass optical filter in front of the PI (FL3) channel detector. […]

[3] = tested on: control-transduced (MCSV) primary tumor-derived cells; test: Sensitivity to HDAC inhibitor of transduced primary tumor-derived cell culture; type: cell-based; details: high histone H4 acetylation
[4] = tested on: cells derived from "class A" (globally hypoacetylated) primary human breast tumors; test: Apoptosis of cultured primary breast tumor cells treated with HDAC inhibitors; type: cell-based; details: cells from four class A tumors
Experimental: (§1) To establish whether this classification may have additional correlations with tumor biology and potential influences on the choice of clinical therapeutic treatments, the sensitivity of tumor cells derived from “class A” or “class B” primary human breast tumors to various HDAC inhibitors was evaluated in vitro (FIG. 7-8). To investigate this further, cells derived from excision surgery of primary breast tumors were cultured (on which in parallel IHC using the T25 antibody was performed to establish the histone acetylation levels in vivo) following standard procedures (Elenbaas et al., 2001, Genes Dev 15, 50-65). After a few passages in culture (in the absence of fetal bovine serum, to eliminate contamination of fibroblasts), the cell population is greatly enriched in tumor cells. The bulk populations of cells derived from four “class A” and three “class B” tumors were then treated with VPA, or TSA (FIGS. 7-8). […] The immunohistochemical classification as described here, can therefore be used to predict the response of tumor cells to treatment with HDAC inhibitors and could thus be used for prognostic predictions whether a patient should be treated with such inhibitors.

[5] = tested on: cells derived from "class B" primary human breast tumors; test: as above; type: cell-based; details: cells from three class B tumors
Experimental: as §1

[6] = tested on: acetylated histone H3 and histone H4 in U937 cells; test: Western blot of histone acetylation in U937 cells treated with HDACi; type: cell-based, human; details: for levels of acetylated histone H3 and histone H4 by Western blot: treatment in vitro for 6-12 hours
T-cell lymphomas = details: phase II; cited from earlier work
[7] = tested on: stage III/IV non-small cell lung cancer; details: phase II, monotherapy; cited from earlier work
[8] = Plasmatic VPA concentration in treated patients; type: in vivo, human; details: 10 to 30 mg/kg/day
Experimental: HDAC inhibitors are currently being tested for their clinical use in tumor patients (Marks et al., 2001, Nat Rev Cancer 1, 194-202). Therefore, the inventors evaluated the response to valproic acid, VPA (a HDAC inhibitor currently in clinical trials for several forms of cancer), in blood samples of patients subjected to VPA treatment. Peripheral blood was collected periodically before/at various times of VPA treatment (10 to 30 mg/kg/day; plasmatic VPA concentration: 0,75 mM), mononuclear cells were isolated by Ficoll analysis and then analyzed as described. […] The histone acetylation level measured in blood cells may serve as marker to evaluate the efficacy of HDAC inhibitor treatment of patients suffering from tumors, including solid tumors, to further orientate the treatment schedule.

[9] = tested on: histone acetylation in peripheral blood mononuclear cells; test: Flow cytometry of histone acetylation in blood mononuclear cells of patients under VPA treatment; type: in vivo, human; details: 10 to 30 mg/kg/day
Experimental: Histone acetylation analysis was performed according to the following procedure. Cells were fixed for 15 minutes in 1% formaldehyde in PBS. 1×10^6 cells/sample were washed with PBS+1% BSA and permeabilised with 200 μl of 0.1% Triton X100 in PBS for 10 min at room temperature (to allow for the antibody to reach acetylated nuclear proteins, such as histones). After washing with PBS+1% BSA pellets were incubated with 500 μl of 10% normal goat serum (NGS) in PBS for 20 min at 4° C. Histone acetylation levels were detected by incubation with T52 mouse monoclonal antibody (1 μg/ml in PBS+1% BSA). Detection was performed by incubation with a fluorescein isothiocyanate (FITC)-conjugated affinity pure F(ab′)2 fragment of goat anti-mouse IgG (Sigma) for 1 h at room temperature in the dark.

[10] = tested on: acetylated histone H4 in U937 cells; test: Immunohistochemistry (T25) of U937 cells treated with HDACi; type: cell-based, human; details: 12 hours, 1 mM, T25 antibody
Experimental: To evaluate the specificity of the T25 antibody in immunohistochemistry (IHC), the inventors performed a preliminary test in an established cell line (U937 cells). […] Untreated cells, or cells treated for 12 hours with VPA (1 mM), were either processed for Western blot analysis (FIG. 3A), or fixed in formalin and then processed for immunohistochemistry (FIG. 1B). […] The T25 antibody can therefore be used for the analysis of histone acetylation levels by western blot analysis and immunohistochemistry (IHC).

**Q.** For `CC(/C=C/C(=O)NO)=C\[C@@H](C)C(=O)c1ccc(N(C)C)cc1` [TSA, Trichostatin A], which apoptosis [1] is on record?
**A.** up to 50%

**Q.** What about the “mean fluorescence value (FL1-H), T52 staining” value [2] of the same molecule?
**A.** 450

**Q.** What about the “sensitivity to treatment (apoptosis)” value [3] of the same molecule?
**A.** resistant

**Q.** And the “apoptosis upon treatment with the HDAC inhibitors” value [4]?
**A.** showed apoptosis

**Q.** What about the “apoptosis upon treatment with the HDAC inhibitors” value [5] of the same molecule?
**A.** totally resistant

**Q.** And the “acetylated histones H3 and H4 bands in Western blot” value ([6]; detection with T52 antibody (FIG. 9))?
**A.** greatly increased

**Q.** And the “levels of acetylated histone H3 and histone H4 by Western blot” value [6]?
**A.** drastic increase

**Q.** For `C/C=C1\NC(=O)[C@H]2CSSCC/C=C/[C@H](CC(=O)N[C@H](C(C)C)C(=O)N2)OC(=O)[C@H](C(C)C)NC1=O` [depsipeptide], which clinical outcome (T-cell lymphomas) is on record?
**A.** used successfully

**Q.** For `CCCC(=O)OCOC(=O)C(C)(C)C` [Pivanex], which clinical activity [7] is on record?
**A.** demonstrating activity

**Q.** Which “plasmatic VPA concentration” value [8] does the source give for `CCCC(CCC)C(=O)O` [VPA, valproic acid] here?
**A.** 0,75 mM

**Q.** What about the “Histone acetylation levels, increase” value ([9]; after 7-days of treatment (day 8)) of the same molecule?
**A.** > 3 fold

**Q.** What about the Histone acetylation levels ([9]; day 28-35) of the same molecule?
**A.** further increased

**Q.** And the “apoptosis upon treatment with the HDAC inhibitors” value [4]?
**A.** showed apoptosis

**Q.** What about the “apoptosis upon treatment with the HDAC inhibitors” value [5] of the same molecule?
**A.** totally resistant

**Q.** What about the “acetylated histone H4 staining in immunohistochemistry” value [10] of the same molecule?
**A.** increase in the intensity of staining and number of stained cell nuclei

**Q.** What about the “levels of acetylated histone H3 and histone H4 by Western blot” value [6] of the same molecule?
**A.** drastic increase
